Results reported in patent US8772500B2, “TRPV3 modulators” (AbbVie Inc., priority 2011, dated 2014).
Where two headings read alike, the source gives them in different places.

What was measured:
[1] = In vitro human microsomal stability assay; assay type: in vitro ADME; settings: human, 0.5 h, 0.5 μM, pH 7.4
Outline: (§1)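 Metabolic stability is assessed by incubating test compound with liver microsomes at 37 °C in the presence of NADPH. Rat assays use Sprague-Dawley microsomes, while human assays use human microsomes.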

[2] = target: T1, human TRPV3 (Homo sapiens, UniProt Q8NET8); assay: In vitro antagonism of recombinant human TRPV3 activation (FLIPR Tetra calcium assay, 2-APB as agonist); assay type: cell-based; settings: HEK293 cells stably expressing human TRPV3, 2-APB 80 μM
T1 construct: expressed in transfected cells
T1 sequence (Q8NET8 1-790): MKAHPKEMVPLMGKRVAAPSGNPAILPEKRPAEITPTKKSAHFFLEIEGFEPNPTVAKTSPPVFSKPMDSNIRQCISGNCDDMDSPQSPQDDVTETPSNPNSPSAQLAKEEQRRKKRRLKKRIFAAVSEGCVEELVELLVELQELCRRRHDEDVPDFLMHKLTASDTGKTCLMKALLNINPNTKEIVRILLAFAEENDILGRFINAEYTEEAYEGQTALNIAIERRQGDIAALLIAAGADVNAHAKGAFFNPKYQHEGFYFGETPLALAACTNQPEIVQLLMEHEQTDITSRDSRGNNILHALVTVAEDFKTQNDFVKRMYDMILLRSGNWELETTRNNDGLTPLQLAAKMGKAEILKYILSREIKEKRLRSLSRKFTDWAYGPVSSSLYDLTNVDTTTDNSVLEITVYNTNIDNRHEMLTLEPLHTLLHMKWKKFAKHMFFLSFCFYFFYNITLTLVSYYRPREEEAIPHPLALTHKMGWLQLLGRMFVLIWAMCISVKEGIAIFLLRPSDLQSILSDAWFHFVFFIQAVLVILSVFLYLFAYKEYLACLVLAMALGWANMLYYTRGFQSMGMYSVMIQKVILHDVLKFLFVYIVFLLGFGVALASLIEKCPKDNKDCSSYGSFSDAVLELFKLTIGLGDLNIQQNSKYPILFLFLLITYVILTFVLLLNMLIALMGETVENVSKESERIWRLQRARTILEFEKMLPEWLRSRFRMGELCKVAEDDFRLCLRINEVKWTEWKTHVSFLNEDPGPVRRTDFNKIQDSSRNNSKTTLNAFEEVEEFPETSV
Outline: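 Readout is FLIPR fluorescence, max minus min as percent of uninhibited 2-APB response, giving IC50 (usually mean of ≥2 runs). Stable human TRPV3 HEK293 cells, Calcium-4 dye-loaded, got test compound then, three minutes later, 80 μM 2-APB (EC80); run length 10 min.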

[3] = In vitro rat microsomal stability assay; assay type: in vitro ADME, rat (Sprague-Dawley); settings: Sprague-Dawley, rat, 0.5 h, 0.5 μM, pH 7.4
Outline: as §1

[4] = range class, read-out: IC50 (reported range)

OC(c1ccccn1)C1(c2cccc(F)c2)CCC1 (stereo not shown) [Example 2, [1-(3-fluorophenyl)cyclobutyl](pyridin-2-yl)methanol]
HUMAN MICROSOMAL STABILITY (% REMAINING AFTER 30 MINUTES) [1]: 17% | IC50 [2, 4]: 50 to 500 nM | RAT MICROSOMAL STABILITY (% REMAINING AFTER 30 MINUTES) [3]: 0.64%

N[C@@H]1CCC[C@@H]1[C@@H](O)C1(c2ccc(Cl)c(Cl)c2)CCC1 [Example 216, (R)-[(1S,2R)-2-aminocyclopentyl][1-(3,4-dichlorophenyl)cyclobutyl]-methanol]
HUMAN MICROSOMAL STABILITY (% REMAINING AFTER 30 MINUTES) [1]: >85% | IC50 [2, 4]: 1100 to 5000 nM | RAT MICROSOMAL STABILITY (% REMAINING AFTER 30 MINUTES) [3]: 41%

Cc1ccccc1C1(C(O)c2ccccn2)CCCO1 (stereo not shown) [Example 90, [2-(2-methylphenyl)tetrahydrofuran-2-yl](pyridin-2-yl)methanol]
HUMAN MICROSOMAL STABILITY (% REMAINING AFTER 30 MINUTES) [1]: 35% | IC50 [2, 4]: 50 to 500 nM | RAT MICROSOMAL STABILITY (% REMAINING AFTER 30 MINUTES) [3]: <0.01%

OC(c1ccccn1)C1(c2ccc(F)c(F)c2)CCCO1 (stereo not drawn) [Example 108, (anti)-[2-(3,4-difluorophenyl)tetrahydrofuran-2-yl](pyridin-2-yl)methanol]
HUMAN MICROSOMAL STABILITY (% REMAINING AFTER 30 MINUTES) [1]: 13% | IC50 [2, 4]: 501 to 1000 nM | RAT MICROSOMAL STABILITY (% REMAINING AFTER 30 MINUTES) [3]: 4.9%

OC(c1ccccn1)C1(C2=CCCOC2)CCC1 (single isomer, unassigned) [Example 269, [1-(5,6-dihydro-2H-pyran-3-yl)cyclobutyl](pyridin-2-yl)methanol]
HUMAN MICROSOMAL STABILITY (% REMAINING AFTER 30 MINUTES) [1]: 40% | IC50 ([2]; mostly average of n≧2, read-out: IC50 (actual measured value, shown parenthetically)): 11200 nM | IC50 [2, 4]: 5100 to 20000 nM | RAT MICROSOMAL STABILITY (% REMAINING AFTER 30 MINUTES) [3]: 12%

OC(C1CCCc2cccnc21)C1(c2ccc(C(F)(F)F)cc2)CCC1 (stereo not drawn) [Example 183, (anti)-5,6,7,8-tetrahydroquinolin-8-yl{1-[4-(trifluoromethyl)phenyl]-cyclobutyl}methanol]
HUMAN MICROSOMAL STABILITY (% REMAINING AFTER 30 MINUTES) [1]: <0.01% | IC50 [2, 4]: 1100 to 5000 nM | RAT MICROSOMAL STABILITY (% REMAINING AFTER 30 MINUTES) [3]: <0.01%

O=C1CC(c2ccc(C(F)(F)F)cc2)(C(O)c2ccccn2)C1 (stereo not shown) [Example 160, 3-[hydroxy(pyridin-2-yl)methyl]-3-[4-(trifluoromethyl)phenyl]cyclobutanone]
HUMAN MICROSOMAL STABILITY (% REMAINING AFTER 30 MINUTES) [1]: >85% | IC50 [2, 4]: 5100 to 20000 nM | RAT MICROSOMAL STABILITY (% REMAINING AFTER 30 MINUTES) [3]: 60%

Nc1cccnc1C(O)C1(c2ccc(C(F)(F)F)cc2)CCC1 (stereo not shown) [Example 127, (3-aminopyridin-2-yl){1-[4-(trifluoromethyl)phenyl]cyclobutyl}methanol]
HUMAN MICROSOMAL STABILITY (% REMAINING AFTER 30 MINUTES) [1]: 51% | IC50 [2, 4]: 5100 to 20000 nM | RAT MICROSOMAL STABILITY (% REMAINING AFTER 30 MINUTES) [3]: 1.1%

OC1CC(c2cccc(OC(F)(F)F)c2)(C(O)c2ccccn2)C1 [Example 273, trans-3-[(S)-hydroxy(pyridin-2-yl)methyl]-3-[3-(trifluoromethoxy)phenyl]-cyclobutanol]
HUMAN MICROSOMAL STABILITY (% REMAINING AFTER 30 MINUTES) [1]: 42% | IC50 [2, 4]: 50 to 500 nM | RAT MICROSOMAL STABILITY (% REMAINING AFTER 30 MINUTES) [3]: 65%

O[C@H](c1ccccn1)C1(c2ccc(C(F)(F)F)cc2F)CCC1 [Example 27, (S)-{1-[2-fluoro-4-(trifluoromethyl)phenyl]cyclobutyl}(pyridin-2-yl)-methanol]
HUMAN MICROSOMAL STABILITY (% REMAINING AFTER 30 MINUTES) [1]: 13% | IC50 [2, 4]: 1100 to 5000 nM | RAT MICROSOMAL STABILITY (% REMAINING AFTER 30 MINUTES) [3]: 15%

OC(c1ccccn1)C1(c2ccc(C(F)(F)F)cc2)CCCO1 (stereo not drawn) [Example 89, (syn)-pyridin-2-yl{2-[4-(trifluoromethyl)phenyl]tetrahydrofuran-2-yl}-methanol]
HUMAN MICROSOMAL STABILITY (% REMAINING AFTER 30 MINUTES) [1]: 70% | IC50 [2, 4]: 1100 to 5000 nM | RAT MICROSOMAL STABILITY (% REMAINING AFTER 30 MINUTES) [3]: 4.3%

CC1(O)CC(c2cncc(C(F)(F)F)c2)(C(O)c2ccccn2)C1 [Example 308, cis-3-[(S)-hydroxy(pyridin-2-yl)methyl]-1-methyl-3-[5-(trifluoromethyl)-pyridin-3-yl]cyclobutanol]
HUMAN MICROSOMAL STABILITY (% REMAINING AFTER 30 MINUTES) [1]: 41% | IC50 [2, 4]: 501 to 1000 nM | RAT MICROSOMAL STABILITY (% REMAINING AFTER 30 MINUTES) [3]: 13%
